# Experimental data taken from patent US7166456B2, “Microorganism for producing riboflavin and method for producing riboflavin using the same” (CJ Corp., priority 2002, dated 2007).
# Columns and labels:
# Bacillus subtilis AS5 = assay: Evaluation of resistance against thiaproline (growth on thiaproline-containing minimal medium); format: cell-based; set-up: key to growth of strain: +: growth; −: not growth; details: 37° C., 5 days
# Experimental: (§1) The Bacillus subtilis AS5 as the parent strain was obtained from BIONOM-S, Ltd. (Obolensk, Moscow, Russia). The Bacillus subtilis AS5 was suspended in phosphate buffer at pH 7.0 or citrate buffer at pH 5.5 to have a cell density of 10^7 to 10^8 cells/ml. A mutation-inducing agent, N-methyl-N′-nitro-N-nitrosoguanidine was added to the suspension until its concentration was 10 to 50 μg/ml. The resultant mixture was incubated at room temperature or 30° C. for 30 to 60 minutes to induce mutation. Then, the mixture was washed three times with 0.85% of saline solution and diluted in an appropriate manner. The diluted solution was plated onto 1.8% agar-containing minimal media with various concentrations of thiaproline and cultured at 37° C. for 5 days to obtain colonies. In this case, the concentration of thiaproline ranged from 0 mg/l to 100 mg/l. The formed colonies were inoculated onto nutrient agar media and cultured at 37° C. for 24 hours. Then, the resultant nutrient cultures were inoculated onto fermentation media and cultured at 37° C. for 4 to 5 days. The highest riboflavin-producing strain was selected.
# In this example, in order to evaluate resistance to thiaproline, the Bacillus subtilis CJKB0001 (KCCM-10445) of Example 1 and the Bacillus subtilis AS5 as the parent strain were cultured in various concentrations of thiaproline-containing media. In detail, respective strains were inoculated onto thiaproline-containing media as shown in Table 1 and cultured at 37° C. for 5 days. In this case, the concentration of thiaproline ranged from 0 to 100 mg/l.
# [1] = test system: Bacillus subtilis CJKB0001 (KCCM-10445); assay: as above; format: cell-based; set-up: key: +: growth; −: not growth; details: 37° C., 5 days
# Experimental: as §1
# In this example, in order to evaluate resistance to thiaproline, the Bacillus subtilis CJKB0001 (KCCM-10445) of Example 1 and the Bacillus subtilis AS5 as the parent strain were cultured in various concentrations of thiaproline-containing media. […]
structure (smiles),measurement,setting,value
O=C(O)[C@@H]1CSCN1 [thiaproline],growth of strain,Bacillus subtilis AS5; 40 mg/l thiaproline,+
same,growth of strain,Bacillus subtilis AS5; 50 mg/l thiaproline,−
same,growth of strain,Bacillus subtilis AS5; 70 mg/l thiaproline,−
same,growth of strain,Bacillus subtilis AS5; 100 mg/l thiaproline,−
same,thiaproline concentration at which the strain cannot grow,Bacillus subtilis AS5; thiaproline-containing medium,more than 40 mg/l
same,growth of strain,[1]; 70 mg/l thiaproline,+
same,growth of strain,[1]; 100 mg/l thiaproline,−
